Test results published in patent US8722930B2, “Protease inhibitors” (Orion Corporation, priority 2009, dated 2014).
Where two headings read alike, the source gives them in different places.

Key:
DU145 cells [1] = assay: Migration assay in transwell chambers; assay type: cell-based; conditions: for inhibition at 10 µM: Homo sapiens, DU-145, 24 hours
Experimental: Migration assays were performed to determine the effect of matriptase inhibitors on cell motility. Cells were seeded with 10 μM test compound into transwell chambers and allowed to migrate for 24 hours using a combination of 10% FBS and 5 μg/ml fibronectin as chemoattractant.

plasmin = molecular target: T1, plasmin (Homo sapiens, UniProt P00747); assay: Plasmin enzymatic assay (selectivity screening); assay type: biochemical; conditions: for Plasmin Inhibition (%): % Inhibition at 5 μM
T1 construct: uPA, Factor Xa, thrombin, plasmin and trypsin (Sigma, USA); purchased Sigma, USA
T1 sequence (P00747 581-810 limits assumed, species assumed): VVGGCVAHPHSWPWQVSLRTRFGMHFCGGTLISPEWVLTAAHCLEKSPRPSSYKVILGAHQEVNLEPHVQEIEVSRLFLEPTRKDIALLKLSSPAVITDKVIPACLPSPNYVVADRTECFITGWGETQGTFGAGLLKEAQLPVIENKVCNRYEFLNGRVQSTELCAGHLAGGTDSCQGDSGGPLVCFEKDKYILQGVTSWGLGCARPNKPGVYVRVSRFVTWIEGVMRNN
T1 sequence (P00747 97-580 partner limits assumed, species assumed): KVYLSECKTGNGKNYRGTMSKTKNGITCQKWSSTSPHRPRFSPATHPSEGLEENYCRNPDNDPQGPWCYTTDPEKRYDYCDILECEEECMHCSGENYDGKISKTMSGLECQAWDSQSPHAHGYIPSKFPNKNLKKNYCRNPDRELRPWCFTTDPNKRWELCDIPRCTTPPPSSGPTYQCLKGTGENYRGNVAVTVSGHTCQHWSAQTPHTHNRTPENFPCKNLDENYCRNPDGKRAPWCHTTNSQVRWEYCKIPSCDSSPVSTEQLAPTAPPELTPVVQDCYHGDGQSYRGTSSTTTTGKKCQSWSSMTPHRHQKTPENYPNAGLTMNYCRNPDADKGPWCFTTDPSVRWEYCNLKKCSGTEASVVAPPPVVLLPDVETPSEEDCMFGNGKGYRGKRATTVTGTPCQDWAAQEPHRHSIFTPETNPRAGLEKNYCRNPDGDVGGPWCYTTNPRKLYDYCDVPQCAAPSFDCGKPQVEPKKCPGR
Description: (§1) Purified recombinant matriptase was used in a fluorescence-based screening assay using Gln-Ala-Arg peptide as a substrate. In this assay the cleavage of AMC from Boc-Gln-Ala-Arg-7-amido-4 methylcoumarin hydrochloride (Boc-Gln-Ala-Arg-AMC) (Sigma, USA) was monitored by measuring the increase in fluorescence intensity of AMC released upon proteolytic cleavage at 480 nm (kex=360 nm). Similarly, enzymatic assays in fluorimetric or colorimetric format for uPA, Factor Xa, thrombin, plasmin and trypsin (Sigma, USA) were established using substrates pyroGlu-Gly-Arg-pNA.HCl, Boc-Gln-Ala-Arg-AMC, CH3OCO-D-CHA-Gly-Arg-PNA.AcoH, Pyro Glu-Phe-Lys—pNA.HCl and Boc-Gln-Ala-Arg-AMC, respectively.

[2] = molecular target: T2, Purified recombinant matriptase (Homo sapiens, UniProt Q9Y5Y6); assay: Matriptase fluorescence-based enzymatic assay (Boc-Gln-Ala-Arg-AMC cleavage); assay type: biochemical
T2 sequence (Q9Y5Y6 1-855): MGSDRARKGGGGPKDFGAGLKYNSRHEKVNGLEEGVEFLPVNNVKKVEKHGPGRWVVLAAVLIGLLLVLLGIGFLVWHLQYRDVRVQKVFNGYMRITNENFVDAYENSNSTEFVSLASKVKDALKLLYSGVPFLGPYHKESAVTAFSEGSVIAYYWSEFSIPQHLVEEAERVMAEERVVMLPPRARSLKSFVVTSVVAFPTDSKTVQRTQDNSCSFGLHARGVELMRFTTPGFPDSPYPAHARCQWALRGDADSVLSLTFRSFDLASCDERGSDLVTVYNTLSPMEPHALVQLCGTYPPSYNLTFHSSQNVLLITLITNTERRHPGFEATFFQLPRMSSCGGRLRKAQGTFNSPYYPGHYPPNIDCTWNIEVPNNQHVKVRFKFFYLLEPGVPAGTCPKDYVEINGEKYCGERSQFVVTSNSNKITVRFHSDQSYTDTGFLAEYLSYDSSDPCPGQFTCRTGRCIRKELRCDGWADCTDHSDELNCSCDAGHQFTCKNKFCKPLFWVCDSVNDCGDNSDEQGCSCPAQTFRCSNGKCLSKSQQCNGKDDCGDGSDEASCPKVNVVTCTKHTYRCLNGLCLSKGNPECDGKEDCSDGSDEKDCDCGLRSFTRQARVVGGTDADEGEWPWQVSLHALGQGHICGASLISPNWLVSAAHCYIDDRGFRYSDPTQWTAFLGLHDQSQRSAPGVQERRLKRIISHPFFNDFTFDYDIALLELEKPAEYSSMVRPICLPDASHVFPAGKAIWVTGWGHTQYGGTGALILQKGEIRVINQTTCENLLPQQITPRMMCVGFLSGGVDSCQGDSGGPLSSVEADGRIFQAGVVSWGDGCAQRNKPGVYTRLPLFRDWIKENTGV
Description: as §1

DU145 cells [3] = assay: Cell invasion assay (matrigel transwell); assay type: cell-based; conditions: for inhibition at 10 µM: Homo sapiens, DU-145, 48 hours
Experimental: Cell invasion assays were done for quantitating the degree to which invasive cells penetrate a barrier essentially as in migration assay but with the use of matrigel consisting of basement membrane components in the transwell inserts and incubating for 48 hours. The barrier used was matrigel. This was followed by fixing and staining of the transwell insert with 0.5% crystal violet in 25% methanol in order to visualize cells migrated.

Factor Xa = molecular target: T3, Factor Xa (Homo sapiens, UniProt P00742); assay: Factor Xa enzymatic assay (selectivity screening); assay type: biochemical; conditions: for Factor Xa Inhibition (%): % Inhibition at 5 μM
T3 construct: uPA, Factor Xa, thrombin, plasmin and trypsin (Sigma, USA); purchased Sigma, USA
T3 sequence (P00742 235-488 limits assumed): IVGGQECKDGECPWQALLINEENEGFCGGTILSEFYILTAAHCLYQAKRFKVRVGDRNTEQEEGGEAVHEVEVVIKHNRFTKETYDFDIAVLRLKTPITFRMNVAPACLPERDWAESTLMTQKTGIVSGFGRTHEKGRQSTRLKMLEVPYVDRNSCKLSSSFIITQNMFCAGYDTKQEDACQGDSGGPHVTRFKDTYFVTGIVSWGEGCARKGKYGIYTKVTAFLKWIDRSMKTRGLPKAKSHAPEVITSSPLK
T3 sequence (P00742 41-179 partner limits assumed): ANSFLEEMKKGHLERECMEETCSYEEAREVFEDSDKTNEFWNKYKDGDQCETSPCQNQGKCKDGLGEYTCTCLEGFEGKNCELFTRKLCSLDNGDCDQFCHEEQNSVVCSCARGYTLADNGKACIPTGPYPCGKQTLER
Description: as §1

uPA = molecular target: T4, uPA (Homo sapiens, UniProt P00749); assay: uPA enzymatic assay (selectivity screening); assay type: biochemical; conditions: for uPA Inhibition (%): % Inhibition at 5 μM
T4 construct: purchased Sigma, USA
Description: as §1

thrombin = molecular target: T5, thrombin (Homo sapiens, UniProt P00734); assay: Thrombin enzymatic assay (selectivity screening); assay type: biochemical; conditions: for Thrombin Inhibition (%): % Inhibition at 5 μM
T5 construct: uPA, Factor Xa, thrombin, plasmin and trypsin (Sigma, USA); purchased Sigma, USA
Description: as §1

DU145 cells [4] = assay: Cytotoxicity, Calcein AM assay, DU145; assay type: cell-based; conditions: four days of incubation; for viability at 10 µM: Homo sapiens, DU-145, 96 h, read-out: Cell survival at 10 μM (%)
Experimental: Cytotoxicity of the compounds was tested in cell lines or primary cells using Calcein AM assay. This assay measures cell viability by quantitation of cleaved fluorescent product of a cell permeable substrate that is retained in the cytoplasm of cells with uncompromised cytoplasmic membrane integrity. The cells were seeded into 96-well plate and allowed to adhere for a day followed by addition of compound at several different concentrations. After four days of incubation with the compound, media was removed from the cells followed by addition of PBS and addition of Calcein AM reagent at 1 μM final concentration. The cells were then allowed to incubate at 37° C. for half an hour followed by reading on the fluorimeter. Percent viability was calculated based on fluorescence value obtained at 485/520 nm with cut off at 495 nm.

trypsin = assay: Trypsin enzymatic assay (selectivity screening); assay type: biochemical; conditions: % Inhibition at 5 μM
Description: as §1

[5] = Table 1, read-out: Matriptase Inhibition IC50
[6] = Table 2, read-out: Matriptase IC50

| Molecule | IC50 [2, 5] [nM] | IC50 [2, 6] [nM] | inhibition at 5 µM (plasmin) [%] | inhibition at 5 µM (Factor Xa) [%] | inhibition at 5 µM (uPA) [%] | inhibition at 5 µM (thrombin) [%] | Inhibition of migration at 10 μM (%) (DU145 cells [1]; 24 hours) | Plasmin Inhibition (%) (plasmin) | Inhibition of invasion at 10 μM (%) (DU145 cells [3]; 48 hours) | Factor Xa Inhibition (%) (Factor Xa) | uPA Inhibition (%) (uPA) | Thrombin Inhibition (%) (thrombin) | Cell survival at 10 μM (%) (DU145 cells [4]) | Trypsin Inhibition (%) (trypsin) | inhibition at 10 µM (DU145 cells [1]) [%] | inhibition at 10 µM (DU145 cells [3]) [%] | viability at 10 µM (DU145 cells [4]) [%] |
| --- | --- | --- | --- | --- | --- | --- | --- | --- | --- | --- | --- | --- | --- | --- | --- | --- | --- |
| 1-[3,5-Bis-(4-carbanimidoyl-phenoxy)-benzoyl]-nonahydro-quinoline [Example 35] | 313 | 312 |  |  |  |  | 18 | 69 | 75 | 69 | 10 | 67 | 78 |  |  |  |  |
| 2-[3,5-Bis-(4-carbanimidoyl-phenoxy)-benzoyl]-nonahydro-isoquinoline [Example 37] | 479 |  |  |  |  |  |  | 65 |  | 67 | 13 | 74 |  | 84 |  |  |  |
| N=C(N)c1ccc(Oc2cc(Oc3ccc(C(=N)N)cc3)cc(C(=O)N3CCN(CCN)CC3)c2)cc1 [Example 31, 2-{4-[3,5-Bis-(4-carbamimidoyl-phenoxy)-benzoyl]-piperazin-1-yl}-ethylamine] | 88 |  | 40 | 94 | 5 | 61 |  |  |  |  |  |  |  |  |  |  |  |
| N=C(N)c1ccc(Oc2cc(OCc3cccc(C(=N)N)c3)cc(C(=O)NC3CCC(N)CC3)c2)cc1 (stereo not shown) [Example 42, N-(4-Aminocyclohexyl)-3-(3-carbamimidoylbenzyloxy)-5-(4-carbamimidoylphenoxy)benzamide] | 10 |  | 30 | 93 | 11 | 36 |  |  |  |  |  |  |  |  |  |  |  |
| N=C(N)c1ccc(COc2cc(Oc3ccc(C(=N)N)cc3)cc(C(=O)NC3CCC(N)CC3)c2)cc1 (stereo not shown) [Example 43, N-(4-Aminocyclohexyl)-3-(4-carbamimidoylbenzyloxy)-5-(4-carbamimidoylphenoxy)benzamide] | 16 |  | 33 | 76 | 7 | 45 |  |  |  |  |  |  |  |  |  |  |  |
| N=C(N)c1ccc(Oc2cc(OCc3ccc(CN)cc3)cc(C(=O)NC3CCC(N)CC3)c2)cc1 (stereo not shown) [Example 45, N-(4-Aminocyclohexyl)-3-(4-aminomethylbenzyloxy)-5-(4-carbamimidoylphenoxy)benzamide] | 48 |  | 21 | 47 | 6 | -12 |  |  |  |  |  |  |  |  |  |  |  |
| N=C(N)c1ccc(Oc2cc(OCc3cccc(C(=N)N)c3)cc(C(=O)N3CCC(CCN)CC3)c2)cc1 [Example 57, 2-{1-[3-(3-Carbamimidoyl-benzyloxy)-5-(4-carbamimidoyl-phenoxy)-benzoyl]-piperidin-4-yl}-ethylamine] | 29 |  | 50 | 94 | 10 | 57 |  |  |  |  |  |  |  | 74 |  |  |  |
| N=C(N)CCCCOc1cc(Oc2ccc(C(=N)N)cc2)cc(C(=O)NC2CCC(N)CC2)c1 (stereo not shown) [Example 65, N-(4-Aminocyclohexyl)-3-(4-carbamimidoylbutoxy)-5-(4-carbamimidoyl-phenoxy)-benzamide] | 16.8 | 16 | 5 | 63 | 4 | 27 |  |  |  |  |  |  |  |  | 7 | 88 | 96 |
| N=C(N)CCCCCOc1cc(Oc2ccc(C(=N)N)cc2)cc(C(=O)NC2CCC(N)CC2)c1 (stereo not shown) [Example 66, N-(4-Aminocyclohexyl)-3-(5-carbamimidoylpentyloxy)-5-(4-carbamimidoyl-phenoxy)-benzamide] | 16.1 | 16 | 5 | 43 | 3 | 21 |  |  |  |  |  |  |  |  | 88 | 95 | 87 |
| N=C(N)c1ccc(Oc2cc(NC(=O)C3CCN(CCO)CC3)cc(Oc3ccc(C(=N)N)cc3)c2)cc1 [Example 111, 1-(2-Hydroxy-ethyl)-piperidine-4-carboxylic acid[3,5-bis-(4-carbamimidoyl-phenoxy)-phenyl]-amide] | 29 |  |  |  |  |  |  | 46 |  | 74 | 17 | 44 |  | 63 |  |  |  |

Continued, in another order:

| IC50 [2, 5] [nM] | IC50 [2, 6] [nM] | inhibition at 5 µM (plasmin) [%] | inhibition at 5 µM (Factor Xa) [%] | inhibition at 5 µM (uPA) [%] | inhibition at 5 µM (thrombin) [%] | Molecule | Inhibition of migration at 10 μM (%) (DU145 cells [1]; 24 hours) | Plasmin Inhibition (%) (plasmin) | Inhibition of invasion at 10 μM (%) (DU145 cells [3]; 48 hours) | Factor Xa Inhibition (%) (Factor Xa) | uPA Inhibition (%) (uPA) | Thrombin Inhibition (%) (thrombin) | Cell survival at 10 μM (%) (DU145 cells [4]) | Trypsin Inhibition (%) (trypsin) | inhibition at 10 µM (DU145 cells [1]) [%] | inhibition at 10 µM (DU145 cells [3]) [%] | viability at 10 µM (DU145 cells [4]) [%] |
| --- | --- | --- | --- | --- | --- | --- | --- | --- | --- | --- | --- | --- | --- | --- | --- | --- | --- |
| 18.9 |  | 22 | 81 | 9 | 26 | N=C(N)c1ccc(Oc2cc(Oc3ccc(C(=N)N)cc3Cl)cc(C(=O)NC3CCC(N)CC3)c2)cc1 (stereo not shown) [Example 69, N-(4-Aminocyclohexyl)-3-(4-carbamimidoyl-2-chlorophenoxy)-5-(4-carbamimidoylphenoxy)benzamide] |  |  |  |  |  |  |  |  |  |  |  |
| 5 |  | 22 | 96 | 11 | 76 | N=C(N)c1cccc(COc2cc(OCc3cccc(C(=N)N)c3)cc(C(=O)NC3CCC(N)CC3)c2)c1 (stereo not shown) [Example 77, N-(4-Aminocyclohexyl)-3,5-bis-(3-carbamimidoyl Benzyloxy)benzamide] |  |  |  |  |  |  |  |  |  |  |  |
| 63.4 | 63 | 10 | 5 | 5 | 36 | N=C(N)c1ccc(Oc2cc(Oc3ccc(CN)cc3)cc(C(=O)NC3CCC(N)CC3)c2)cc1 (stereo not shown) [Example 84, N-(4-Aminocyclohexyl)-3-(4-aminomethylphenoxy)-5-(4-carbamimidoylphenoxy)benzamide] |  |  |  |  |  |  |  |  | 80 | 92 | 100 |
|  | 158 |  |  |  |  | N=C(N)c1cc(F)c(Oc2cc(Oc3ccc(CN)cc3)cc(C(=O)NC3CCC(N)CC3)c2)c(F)c1 (stereo not shown) [Example 87, N-(4-Amino-cyclohexyl)-3-(4-aminomethyl-phenoxy)-5-(4-carbamimidoyl-2,6-difluoro-phenoxy)-benzamide] |  |  |  |  |  |  |  |  | 47 | 88 | 113 |
| 2 |  | 58 | 92 | 25 | 44 | N=C(N)c1ccc(Oc2cc(Oc3ccc(C(=N)N)cc3)cc(C(=O)OC3CCC(N)CC3)c2)cc1 (stereo not shown) [Example 103, 3,5-Bis-(4-carbamimidoyl-phenoxy)-benzoic acid 4-amino-cyclohexyl Ester] |  |  |  |  |  |  |  | 92 |  |  |  |
| 4 |  |  |  |  |  | N=C(N)c1ccc(Oc2cc(NC(=O)[C@H]3CC[C@H](N)CC3)cc(Oc3ccc(C(=N)N)cc3)c2)cc1 [Example 108, Trans-4-amino-cyclohexanecarboxylic Acid[3,5-bis-(4-carbamimidoyl-phenoxy)-phenyl]-amide] |  | 61 |  | 81 | 23 | 49 |  | 76 |  |  |  |
